Reference: US6162810A, “Inadone and tetralone compounds for inhibiting cell proliferation” (The Regents of the University of California, priority 1998, dated 2000)
“Also recorded” adds a separate entry of the source.

How the values were obtained:
[1] = tested on: caspase-3 in MCF-7/ADR cells; assay: Caspase-3 activation in noncycling MCF-7/ADR cells; format: cell-based, human
Protocol: Briefly, cell extracts were prepared from 5×10^6 cells in 100 μl of a lysis buffer (25 mM TrisHCl, pH 7.5, 150 mM KCl, 5 mM EDNA, 1% Nonidet P-40, 0.5% sodium deoxycholate, and 0.1% SDS) and maintained on ice for 10 min, followed by centrifugation at 14,000×g for 5 min at 4° C. The resulting supernatants were collected and frozen at -80° C. or used immediately. Lysates (20 μl, 5-10 μg of total protein) were mixed with 30 μl of assay buffer (50 mM PIPES, 50 mM KC, 5 mM EGTA, 2 mM MgCl2, 1 mM dithiothreitol (DTT), and 0.1 phenylmethanesulfonyl fluoride (PMSF)), containing 100 μM of Z-DEVD-AFC. Caspase-3-like protease activity was measured at 37° C. using a spectrofluorometric plate reader (Perkin-Elmer, LS50B) in the kinetic mode with excitation and emission wavelengths of 400 and 505 nm, respectively. Activity was measured by the release of […] from the synthetic substrate Z-DEVD-AFC (Biomol, Plymouth Meeting, Pa.).

[2] = tested on: KB-GRC-1; assay: Growth inhibition of KB-GRC-1 (MDR); format: cell-based; conditions: Homo sapiens, MDR1, ±1 SD, n>5
[3] = tested on: MV522/Q6; assay: Growth inhibition of MV522/Q6 (MDR); format: cell-based; conditions: Homo sapiens, ±1 SD, n>5
[4] = tested on: CEM; assay: Growth inhibition of CEM (wild type); format: cell-based; conditions: Homo sapiens, CCRF-CEM, ±1 SD, n>5
[5] = tested on: MCF-7/ADR cells; assay: Cell death of stationary phase MCF-7/ADR cells (FACS); format: cell-based, human; conditions: noncycling MCF-7/ADR cells
[6] = tested on: MV522; assay: Growth inhibition of MV522 (wild type); format: cell-based; conditions: Homo sapiens, ±1 SD, n>5
[7] = tested on: MCF-7 wild type cells; assay: Cell death of stationary phase MCF-7 wild type cells (FACS); format: cell-based, human; conditions: MCF-7 wild type (parental) cells
[8] = tested on: tubulin; assay: Inhibition of tubulin assembly; format: biochemical, bovine; conditions: 10 μM tubulin, 20 min incubation, 30° C.; read-out: GI50 inhibitory concentration (tubulin assembly)
Protocol: (§1) To evaluate the effects of the TB compounds of the invention on tubulin, bovine brain tubulin (2.2 mg/ml) was incubated in PEM80 (80 mM K-PIPES, 1 mM MgCl2, 1 mM EGTA) containing 10% glycerol and 2 mM GTP for 30 minutes at 37° C. in the presence or absence of 20 μg/ml nocodazole, 1 mM paclitaxel, or TB compound no. IK-178 at various concentrations. Tubulin polymer was resolved from monomer by sedimentation through a cushion of 60% glycerol in PEM80 at 70,000 rpm for 30 min at 37° C. in a Beckman TLA100 rotor. A fraction of the supernatant was removed for analysis, the cushion washed and then aspirated, and the pellet resuspended in SDS-PAGE sample buffer. Equal proportions of the supernatant and the pellet were then resolved by SDS-PAGE and tubulin visualized by staining with Coomassie blue.
(§2) The quantitative assessment of drug inhibition of tubulin polymerization and evaluation of inhibition of [^3 H]colchicine binding to tubulin were then performed. […] Samples were placed on ice and GTP (0.4 mM) was added. Reaction mixtures were transferred to 0° C. cuvettes in Gilford 250 spectrophotometers, baselines were establishes/d, and the temperature was jumped to 30° C. with electronic temperature controllers (about 60 sec). The IC^50 was defined as the drug concentration required to inhibit extent of assembly after a 20 min incubation. […]

[9] = tested on: HL-60/ADR and MDF-7/ADR cells; assay: MTT assay, visual comparison of cells with and without MDR (FIGS. 1 and 2); format: cell-based, human; conditions: 3 days
[10] = tested on: normal peripheral blood lymphocytes; assay: Viability of normal peripheral blood lymphocytes; format: cell-based; conditions: as much as 1000-fold higher concentrations, 72 hours
[11] = tested on: MCF-7; assay: Growth inhibition of MCF-7 (wild type); format: cell-based; conditions: Homo sapiens, MCF7, ±1 SD, n>5
[12] = tested on: tubulin; assay: Inhibition of [3H]vinblastine binding to tubulin; set-up: species or system bovine; conditions: single experiment
Protocol: The TB compounds of the invention (as represented by TB compound IK-178), are nearly as potent as the strong tubulin assembly inhibitor, combretastatin A-4 (CS-A4). In particular, the GI^50 inhibitory concentration of CS-A4 was 1.2±0.03 μM (n=4), while that of TB compound IK-178 was 1.7±0.1 μM (n=3).

[13] = tested on: caspase-3 in HL-60/ADR cells; assay: Caspase-3 activation in HL-60/ADR cells; format: cell-based, human; conditions: 10 nM
[14] = tested on: MDA-MB-321; assay: Growth inhibition of MDA-MB-321 (wild type); format: cell-based; conditions: Homo sapiens, ±1 SD, n>5
[15] = tested on: HL-60/ADR; assay: Growth inhibition of HL-60/ADR (MDR); format: cell-based; conditions: Homo sapiens, HL60/ADR, ±1 SD, n>5
[16] = tested on: CEM/VLB100; assay: Growth inhibition of CEM/VLB100 (MDR); format: cell-based; conditions: Homo sapiens, ±1 SD, n>5
[17] = tested on: KB-3-1; assay: Growth inhibition of KB-3-1 (wild type); format: cell-based; conditions: Homo sapiens, ±1 SD, n>5
[18] = tested on: KB-GRC-1 and MV522/Q6; assay: MTT proliferation assay of mdr1 overexpressing transfectomas; format: cell-based, human; conditions: 72 h
[19] = tested on: MES-SA/DX5; assay: Growth inhibition of MES-SA/DX5 (MDR); format: cell-based; conditions: Homo sapiens, ±1 SD, n>5
[20] = tested on: tubulin (colchicine-binding site); assay: Inhibition of [3H]colchicine binding to tubulin; set-up: species or system bovine; conditions: 5 μM compound, 5 μM [3H]colchicine, 1 μM tubulin, n=4
Protocol: as §1, §2

[21] = tested on: MDA3-1/gp170; assay: Growth inhibition of MDA3-1/gp170 (MDR); format: cell-based; conditions: Homo sapiens, MDR1, ±1 SD, n>5
[22] = tested on: human cancer cell lines; assay: Hollow fiber assay, in vivo growth inhibitory activity; set-up: species or system human cells in mice
Protocol: To screen the compounds of the invention for growth inhibitory activity, a hollow fiber assay test was performed according to the protocol established by the National Cancer Institute's Developmental Therapeutics Program.
Briefly, according to the National Cancer Institute, the hollow fiber assay is performed as follows:
For these assays, human tumor cells are cultivated in polyvinylidene fluoride (PVDF) hollow fibers, and a sample of each cell line is implanted into each of two physiologic compartments (intraperitoneal and subcutaneous) in mice. Each test mouse receives a total of 6 fibers (3 intraperitoneally and 3 subcutaneously) representing 3 distinct cancer cell lines. Three mice are treated with potential antitumor compounds at each of 2 test doses by the intraperitoneal route using a QD×4 treatment schedule. Vehicle controls consist of 6 mice receiving the compound diluent only. The fiber cultures are collected on the day following the last day of treatment. To assess anticancer effects, viable cell mass is determined for each of the cell lines using a formazan dye (MTT) conversion assay. From this, the % T/C can be calculated using the average optical density of the compound treated samples divided by the average optical density of the vehicle controls. In addition, the net increase in cell mass can be determined for each sample as a sample of fiber cultures are assessed for viable cell mass on the day of implantation into mice. Thus, the cytostatic and cytocidal capacities of the test compound can be assessed.
This represents a total of 4 experiments since each experiment contains 3 cell lines. The data are reported as % T/C for each of the 2 compound doses against each of the cell lines with separate values calculated for the intraperitoneal and subcutaneous samples.
Compounds are selected for further in vivo testing in standard subcutaneous xenograft models on the basis of several hollow fiber assay criteria. […] The intraperitoneal and subcutaneous samples are scored separately so that criteria (1) and (2) can be evaluated. […]

[23] = tested on: HL-60; assay: Growth inhibition of HL-60 (wild type); format: cell-based; conditions: Homo sapiens, ±1 SD, n>5
[24] = tested on: MCF-7/ADR; assay: Growth inhibition of MCF-7/ADR (MDR); format: cell-based; conditions: Homo sapiens, NCI/ADR-RES, ±1 SD, n>5
[25] = tested on: caspase-3 in HL-60 cells; assay: Caspase-3 activation in HL-60 cells; format: cell-based, human
[26] = tested on: MES-SA; assay: Growth inhibition of MES-SA (wild type); format: cell-based; conditions: Homo sapiens, ±1 SD, n>5
[27] = tested on: HL-60/ADR cells; assay: Apoptosis of HL-60/ADR cells (FACS); format: cell-based, human
Protocol: FACS analysis was performed to determine the influence of the TB compounds of the invention on growth cycling of cells (the analysis was performed on harvested cells, fixed in ice-cold 70% ethanol solution, then treated with 100 μg/ml of RNAse A and stained with 50 μg/ml propidium iodide for 1 h at 37° C. DNA content of the cells was analyzed by flow cytometry (Becton Dickinson FACScalibur), and the cell cycle distribution was calculated with the program ModFit LT 2.0 (Verity Software)).
First, the stage at which the TB compounds of the invention arrest growth of HL-60 and HL-60/ADR cells was determined by FACS analysis and caspase-3 activation as described above.

Q: With `COc1cc2c(c(N)c1OC)C(=O)/C(=C\c1cc(C)c(O)c(C)c1)C2` [IK-178] as the compound, how does the “activation of caspase-3” value [1] read?
A: activation of caspase-3

Q: What about the GI50 [2] of the same compound?
A: 7 ± 3 nM

Q: And the GI50 [3]?
A: 8 ± 2 nM

Q: What about the GI50 [4] of the same compound?
A: 12 ± 2 nM

Q: And the “cell death / apoptosis” value [5]?
A: appearance of an apoptotic sub-G0 /G1 peak

Q: What about the “cell death / apoptosis” value ([5]; listed as indanocine) of the same compound?
A: die following treatment

Q: What about the GI50 [6] of the same compound?
A: 13 ± 3 nM

Q: And the “cell death / apoptosis” value [7]?
A: growth-arrested but did not show any apoptotic features

Q: What about the GI50 [8] of the same compound?
A: 1700 ± 100 nM

Q: What about the “sensitivity with acquisition of MDR” value [9] of the same compound?
A: retained, and even enhanced

Q: What about the loss of viability [10] of the same compound?
A: no loss of viability

Q: What about the GI50 [11] of the same compound?
A: 20 ± 5 nM

Q: And the “inhibition of [3H]vinblastine binding to tubulin” value [12]?
A: Neither agent inhibited

Q: And the “time of maximum caspase-3 activity” value [13]?
A: 24 h

Q: And the caspase-3 activity ([13]; compared with untreated cells)?
A: time-dependent increase in caspase-3 activity

Q: And the GI50 [14]?
A: 10 ± 3 nM

Q: What about the GI50 [15] of the same compound?
A: 2 ± 0.2 nM

Q: What about the GI50 [16] of the same compound?
A: 20 ± 1 nM

Q: What about the GI50 [17] of the same compound?
A: 7 ± 2 nM

Q: What about the “sensitivity of transfectomas overexpressing mdr1” value [18] of the same compound?
A: retained complete sensitivity

Q: And the GI50 [19]?
A: 12 ± 3 nM

Q: What about the “inhibition of [3H]colchicine binding” value [20] of the same compound?
A: 95±2%

Q: And the GI50 [21]?
A: 25 ± 2 nM

Q: And the “TOTAL SCORE (IP + SC)” value ([22]; IP + SC)?
A: 24

Q: What about the “IP SCORE” value ([22]; intraperitoneal fibers, intraperitoneal treatment QD×4) of the same compound?
A: 18

Q: What about the “SC SCORE” value ([22]; subcutaneous fibers, intraperitoneal treatment QD×4) of the same compound?
A: 6

Q: What about the GI50 [23] of the same compound?
A: 40 ± 3 nM

Q: And the GI50 [24]?
A: 4 ± 1 nM

Q: What about the caspase-3 activity ([25]; HL-60 cells) of the same compound?
A: only a slight increase

Q: And the “caspase-3 activity relative to the level in the multidrug resistant cells” value ([25]; HL-60 wild type vs HL-60/ADR)?
A: about a quarter

Q: What about the GI50 [26] of the same compound?
A: 85 ± 6 nM

Q: And the apoptosis [27]?
A: became apoptotic; also recorded: did induce
